According to patent US9163020B2, “Azaindole compounds, synthesis thereof, and methods of using the same” (Global Alliance for TB Drug Development, priority 2013, dated 2015):
Converted amounts (≈) assume the structure as drawn. Read-outs that look alike come from different tables or passages of the source.

Key:
[1] = in vivo; settings: Wistar, rat, in vivo
Procedure: PK of azaindoles compounds was performed in mice (healthy and infected) and rats. Mice were pretreated with 100 mg/kg ABT two hours prior to the compound administration. PK data from healthy mice was used to design the dosing regimen for the efficacy study while, information from infected mice was used for the PK-PD analysis.
All oral administration was performed as suspensions in 0.5% HPMC, and 0.1% Tween 80. […] All blood samples were collected via sapheneous vein into Microvette CB300® (Starstedt, Germany) tubes coated with Lithium-Heparin, and plasma was prepared from the collected blood by centrifugation.
One mg/mL stock solution of each compound was prepared in Dimethylsulfoxide (DMSO) and diluted two-fold with acetonitrile. A sixteen point calibration curve was utilized for each analyte, and the standard curves ranged from 0.001 to 40 μg/mL. Plasma/BAL samples were precipitated by adding chilled acetonitrile (1:10 v/v) containing carbamazepine as internal standard (250 ng/mL). Samples were vortexed, and centrifuged at 4000 rpm for 30 min at 10° C. The resulting supernatant was mixed with mobile phase (50% acetonitrile in water with 0.1% formic acid). […] of sample was injected on to a liquid chromatographic system (Waters-ACQUTY UPLC) coupled to triple quadrupole mass spectrometer (Waters-ACQUTY-TQD; MS/MS). Samples were acquired in positive ion mode and detected by multiple reaction monitoring (MRM). Concentrations of the analyte were determined from a standard curve obtained by plotting known concentrations of the analyte against peak area ratios (analyte/internal standard peak response).
PK analysis of the plasma concentration-time relationships were performed with WinNonlin Phoenix Software (version 6.2; Pharsight, USA). […] The maximum concentration of drug in plasma (Cmax), time to Cmax (Tmax), elimination half-life (t1/2), and AUC from time zero to infinity (AUC0-∞) were estimated. […] Minimum of three sample points in the terminal slope were used to estimate to calculate half-life.

[2] = tested on: Mycobacterium tuberculosis (Mtb) H37Rv; experiment: Mtb minimal bactericidal concentration (MBC), plating from MIC plates; format: cell-based; settings: Table 4, read-out: Mtb MBC
Procedure: Aliquots from sample wells (MIC and higher) from the MIC plates were diluted 1:10 and plated on 7H10 agar plates. Plates were incubated at 37° C. for 3-4 weeks, CFU was enumerated.

[3] = tested on: CYP1A2, CYP2C9, CYP2C19, CYP2D6, CYP3A4; settings: human
[4] = 1 μM
Procedure: Viability of cryopreserved hepatocytes was determined using trypan blue and the cell conc. was adjusted to 10^6 cells per mL with buffer (KHB buffer). 1 μM compound (in Acetonitrile; 0.01% DMSO) was incubated with 500 μL of hepatocyte cells (1 million cells per mL) in a NUNC plate. […] Supernatants were analyzed using LC-MS/MS for substrate depletion.

[5] = target: hERG (Homo sapiens, UniProt Q12809)
Chain of hERG (Q12809 whole entry): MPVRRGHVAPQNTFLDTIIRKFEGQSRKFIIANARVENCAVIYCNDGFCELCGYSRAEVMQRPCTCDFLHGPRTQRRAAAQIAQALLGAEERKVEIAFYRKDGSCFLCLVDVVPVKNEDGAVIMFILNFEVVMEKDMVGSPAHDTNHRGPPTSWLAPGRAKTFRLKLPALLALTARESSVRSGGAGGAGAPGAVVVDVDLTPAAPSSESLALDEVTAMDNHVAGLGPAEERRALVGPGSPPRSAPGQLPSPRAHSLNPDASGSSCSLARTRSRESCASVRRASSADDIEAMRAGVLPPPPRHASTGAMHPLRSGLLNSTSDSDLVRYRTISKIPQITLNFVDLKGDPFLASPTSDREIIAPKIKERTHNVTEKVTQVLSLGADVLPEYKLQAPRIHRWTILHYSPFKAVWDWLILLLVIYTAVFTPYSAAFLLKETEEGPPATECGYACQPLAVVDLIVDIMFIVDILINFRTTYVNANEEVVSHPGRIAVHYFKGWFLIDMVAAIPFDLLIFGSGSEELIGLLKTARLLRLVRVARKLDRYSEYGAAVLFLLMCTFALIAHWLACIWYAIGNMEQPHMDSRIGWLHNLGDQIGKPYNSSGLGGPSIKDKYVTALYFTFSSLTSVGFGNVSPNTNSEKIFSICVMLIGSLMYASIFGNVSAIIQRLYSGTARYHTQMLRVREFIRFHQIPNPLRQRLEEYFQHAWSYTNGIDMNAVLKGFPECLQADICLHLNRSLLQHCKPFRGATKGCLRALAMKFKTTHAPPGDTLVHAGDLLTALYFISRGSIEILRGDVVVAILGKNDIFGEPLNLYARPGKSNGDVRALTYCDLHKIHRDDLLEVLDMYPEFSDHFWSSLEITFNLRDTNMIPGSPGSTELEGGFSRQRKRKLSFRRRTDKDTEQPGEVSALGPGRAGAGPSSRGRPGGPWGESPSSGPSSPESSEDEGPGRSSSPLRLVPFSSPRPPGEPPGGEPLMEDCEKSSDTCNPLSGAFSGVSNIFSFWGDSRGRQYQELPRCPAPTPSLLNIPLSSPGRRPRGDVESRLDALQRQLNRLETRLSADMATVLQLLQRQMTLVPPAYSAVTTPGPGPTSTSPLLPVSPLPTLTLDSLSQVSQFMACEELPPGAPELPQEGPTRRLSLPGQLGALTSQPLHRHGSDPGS
Procedure: Compounds were tested on voltage-gated ion channels using the medium-throughput electrophysiology IonWorks™ device. […] For carrying out the experiment, a boat in the “Cells” position of the IonWorks™ instrument was loaded with the cell suspension, and a 96-well PBS destination plate was placed in the “Plate 1” position. A 384-well PatchPlate™ was placed in the IonWorks™ plenum and held in position using the plenum clamp. From this point the experiment progress is automated and ultimately reports a non-cumulative concentration-effect curve for test compound.

[6] = tested on: Mycobacterium tuberculosis (Mtb) H37Rv ATCC 27294; experiment: microbe, parasite or virus in culture; format: cell-based; settings: Mycobacterium tuberculosis, read-out: Mtb MIC
[7] = infected BALB/c mice, chronic efficacy, multiple oral doses 30 mg/kg, +ABT
[8] = in vitro; format: in vitro ADME; settings: plasma
Procedure: Protein binding is measured using the equilibrium dialysis technique. Compound is added to 10% plasma giving a concentration of 20 μM and dialysed with isotonic buffer for 18 hours at 37° C. The plasma and buffer solutions are analysed using generic LCUVMS and the first apparent binding constant for the compound derived. The binding constant is then used to determine the % free in 100% plasma.

[9] = tested on: hypoxia induced non-replicating persistent (NRP) Mtb cells; experiment: Activity against hypoxia induced non-replicating persistent (NRP) Mtb (HBC, Wayne model); format: cell-based, Mycobacterium tuberculosis
[10] = in vitro; format: in vitro ADME; settings: pH 7.4; mouse microsomes; read-out: Mo micrsomal Clint
Procedure: 1 μM compound was incubated with 1 mg/mL of microsomes (Pooled HLM/MLM with 20 mg/ml protein cone.) at 37° C. in 166 μL of buffer (100 mM phosphate buffer, pH-7.4) containing 2 mM NADPH solution. 20 μL of incubation mix was quenched with 4 volumes chilled acetonitrile at different time points i.e. 0, 2, 5, 10, 20 and 30 min in a fresh 96 well plate. The quench plate was centrifuged at 4000 rpm for 15 min. 30 μL of supernatant was diluted to 300 μL with 50% acetonitrile in water and substrate depletion was analyzed using LC-MS/MS.

## COc1ncnc(Cn2cc(C(=O)NCCF)c3ncccc32)c1C [Compound 3, N-(2-fluoroethyl)-1-((6-methoxy-5-methylpyrimidin-4-yl)methyl)-1H-pyrrolo[3,2-b]pyridine-3-carboxamide]
[1]; iv, 0.5 mg/kg
  AUC(0-t): 1.6 ± 0.29 µM·h
  C0h: 1.76 ± 0.42 µM
  Vd: 1.05 ± 0.28 L/kg
  clearance: 15.5 ± 3.21 mL/min/kg
  half-life: 2.22 ± 2.51 h
[1]; po, 30 mg/kg
  AUC(0-inf): 101 µM·h
  Cmax: 15 µM
  F: 96%
  Tmax: 2 h
  half-life: 2.01 h
[2]
  MBC: 1.56 to 3.12 µM (≈ 0.536 to 1.07 µg/mL)
[3]
  CYP inhibition: >50 µM
[4]
  Human CLpred hepatocytes (% LBF): 6.0 % LBF
  Rat CLpred hepatocytes (% LBF): 13 % LBF
[5]
  hERG: >33 µM
[6]; Table 1
  MIC: 1.56 µM (≈ 0.536 µg/mL)
[6]; Table 4
  MIC: 1.56 to 3.12 µM (≈ 0.536 to 1.07 µg/mL)
[7]
  % T > MIC: 92%
  % fT > MIC: 29%
[8]; human
  fraction unbound at 18 h, 20 μM: 0.05 to 0.22
[8]
  Human PPB (% free): 9.8 % free
[9]; cidality measured as HBC in Wayne model
  activity against non-replicating Mtb under hypoxic conditions: moderate activity
[9]; hypoxic conditions, Wayne model, Table 4
  Mtb HBC: 50 µM
[10]
  microsomal CLint: 104 µL/min/mg
